In PubChem BioAssay AID624344 (Sanford-Burnham Center for Chemical Genomics, 2012):
Active and inactive are the calls of the source. How the calls were made is not given here.

What was measured:
[1] = inhibitors of PAF-induced NFkB signaling in CF airway cells, dose response, cell-based, uHTS hits, panel, cytotoxicity readout (AID 624344); conditions: CF bronchial epithelial cells, PAF-induced NFkB reporter inhibition; with PAF, mean of runs
Cytotoxicity = assay: as above; conditions: CF bronchial epithelial cells, mean of runs

Structure (SMILES)	IC50 [1]	IC50 (Cytotoxicity)
COc1ccc(-c2cnc3c(NC=O)cc(-c4ccc(C(=O)N5CCOCC5)cc4)cn23)cc1OC	2.94 µM	14.7 µM
O=[N+]([O-])c1ccc(Oc2ccc(F)cc2)c2ccncc12	1.82 µM	42.4 µM
c1csc(Cc2nn3c(-c4ccncc4)nnc3s2)c1	7.94 µM	57 µM (inactive)
COc1ccc(-n2c(C)c(C(C)=O)c3cc(O)ccc32)cc1	0.308 µM	> 79 µM (inactive)
C=C(C)COc1ccc(-c2[nH]ncc2-c2ccc(OC)cc2)c(O)c1	5.07 µM	24 µM
FC(F)(F)c1nnc2c(Sc3ccccc3)nc3ccccc3n12	2.76 µM	3.54 µM
Cc1cnc(C=O)c2cccc([N+](=O)[O-])c12	3.35 µM	60.6 µM (inactive)
CN1CCN(S(=O)(=O)c2ccc(Sc3nnnn3-c3ccccc3)c([N+](=O)[O-])c2)CC1	2.06 µM	3.12 µM
CC(C)C[C@@H](CN1CCCC1CN1C(=S)NC[C@@H]1Cc1ccc(O)cc1)N1C[C@H](Cc2ccc(O)cc2)N(CC2CCCCCC2)C1=S (some centres not stated)	7.98 µM	25.2 µM
COc1ccc(CN(C(=O)CSc2nnc(-c3c[nH]c4ccccc34)o2)c2ccc(F)cc2)cc1OC	3.94 µM	7.44 µM
NC1(C(=O)O)CSSC1	7.73 µM	35.6 µM
COc1cc(O)cc2cc3c(c(O)c12)C(=O)CC(C)(O)O3 (configuration not stated)	4.17 µM	45.5 µM
COc1ccc(C2CNC(=O)C2)cc1OC1CCCC1 (configuration not stated)	11.3 µM	40.7 µM
O=c1[nH]c(C2CCN(S(=O)(=O)c3ccc4c(c3)OCCO4)CC2)nc2c1nnn2Cc1c(F)cccc1Cl	5.74 µM	44.5 µM
CN(C)/C=C/C(=O)c1ccc2noc(-c3ccccc3)c2c1	3.54 µM	10.8 µM
O=Nc1ccc(NO)c2ccccc12	7.21 µM	17.4 µM
COc1nc(N)c(C#N)c(-c2ccc(N(C)CCC#N)cc2)c1C#N	3.31 µM	> 79 µM (inactive)
C=CCSc1nc2ccccc2n1C(=O)/C=C/c1ccc(OC)c(OC)c1	3.46 µM	62 µM (inactive)
Cc1cc(N2C(=O)C(O)=C(C(=O)c3ccc(C)o3)C2c2cccc(Oc3ccccc3)c2)no1 (configuration not stated)	10.6 µM	41.7 µM
O=C(Nc1ccc(Cl)cc1)c1nc[nH]c1C(=O)NCCCCNC(=O)c1[nH]cnc1C(=O)Nc1ccc(Cl)cc1	1.05 µM	1.11 µM
CC(=O)c1c(C)n(C2CCCCC2)c2ccc(O)cc12	0.797 µM	> 79 µM (inactive)

Structure (SMILES)	IC50 [1]	IC50 (Cytotoxicity)
O=S(=O)(CC(CN1CCCC1)N1CCCC1)c1ccc2ccccc2c1 (configuration not stated)	1.46 µM	2.35 µM
CC(C)Nc1ncnc2ccc(Br)cc12	0.706 µM	10.8 µM
O=C1Cc2c([nH]c3ccc(Br)cc23)-c2ccccc2N1	3.75 µM	16.4 µM
COCCNc1nc(Oc2cncc(Cl)c2)c2sccc2n1	2.9 µM	29.1 µM
Nc1ncnc2c1c(-c1ccc(Oc3ccccc3)cc1)cn2C1CCCC1	6.66 µM	11.3 µM
Cc1nc([N+](=O)[O-])c(Sc2nc3ccc([N+](=O)[O-])cc3[nH]2)n1Cc1ccccc1	3.5 µM	8.03 µM
COc1ccc(-c2[nH]ncc2-c2ccc3c(c2)OCCO3)c(O)c1	0.186 µM	65.4 µM (inactive)
Cc1ccc2nc(SCC(=O)Nc3cc(C(F)(F)F)ccc3N3CCOCC3)[nH]c2c1	inactive	60.8 µM (inactive)
O=C1N(c2ccccc2C(F)(F)F)O[C@@]1(c1ccccc1)C1CCCCC1	8.4 µM	> 79 µM (inactive)
COc1ccc(/C=N/Nc2nc(-c3cccnc3)nc3ccccc23)cc1OC	3 µM	8.04 µM
C=C1C(C)C2C(Cc3ccccc3)NC(=O)C23OC(=O)/C=C/C(O)CCCC(C)C/C=C/C3C1O (configuration not stated)	1.25 µM	2.32 µM
COc1ccc(-c2cn[nH]c2-c2ccc(O)cc2O)cc1	1.76 µM	> 79 µM (inactive)
CC(=O)Nc1ccc(NC(=O)COC(=O)c2c3c(nc4ccccc24)CCN(Cc2ccccc2)C3)cc1	5.27 µM	4.16 µM
CCCCN(c1ccccc1)c1ncnc(N)c1[N+](=O)[O-]	1.08 µM	> 79 µM (inactive)
COc1ccc([C@]2(C(C)C)ON(c3ccccc3C(F)(F)F)C2=O)cc1	11.1 µM	> 79 µM (inactive)
C#CCN(C[C@@H]1[C@@H](OC(=O)NCc2ccco2)[C@@H](OC(=O)NCc2ccco2)Cn2c(=O)ccc(=O)n21)S(=O)(=O)c1ccc(C)cc1	3.11 µM	18.3 µM
COc1ccc(C(c2nnnn2-c2ccc(OC)cc2)N2CCC(n3c(=O)[nH]c4ccccc43)CC2)cc1 (configuration not stated)	5.8 µM	11.7 µM
O=C(CCl)N(Cc1cc(=O)[nH]c2ccccc12)c1ccccc1	1.48 µM	2.98 µM
Nc1nccc(SCc2ccc(Cl)cc2Cl)n1	14.3 µM	> 79 µM (inactive)
COc1ccc(NC(=O)Nc2nnc(-c3ccncc3)s2)cc1	5.6 µM	64.7 µM (inactive)
O=C1OC(Nc2nc(-c3ccc(F)cc3)cs2)c2ccccc21 (configuration not stated)	2.31 µM	10.7 µM

Structure (SMILES)	IC50 [1]	IC50 (Cytotoxicity)
COc1ccc(-c2nc(N3CCOCC3)nc3n[nH]c(N)c23)cc1	6.92 µM	9.47 µM
c1cc(-c2nnc3sc(C4CCCCC4)nn23)ccn1	3.45 µM	> 79 µM (inactive)
O=S(=O)(c1cccc2cnccc12)N1CCCNCC1	4.07 µM	8.16 µM
COc1cc2oc(=O)cc(-c3ccc(-c4ccc(N(C)C)cc4)cc3)c2c(OC)c1OC	11.6 µM	39.9 µM
COc1cccc(NC(=O)Nc2nnc(CC(=O)NCc3ccccc3)s2)c1	5.09 µM	52.3 µM (inactive)
COc1ccc(-c2cn[nH]c2-c2ccc(OC)cc2)cc1	2.53 µM	63.5 µM (inactive)
COc1ccc2c(c1)c(C(C)=O)c(C)n2-c1ccc(C(C)=O)cc1	2.83 µM	44.5 µM
Cc1nnc(SCC(=O)N2CCC(c3noc4ccc(F)cc34)CC2)s1	1.18 µM	> 79 µM (inactive)
COc1ccc(-c2cc(=O)oc3cc(OC(=O)C4CCCCC4)ccc23)cc1	2.37 µM	> 79 µM (inactive)
CN(c1ncnc(N)c1[N+](=O)[O-])C1CCS(=O)(=O)C1 (configuration not stated)	2.79 µM	> 79 µM (inactive)
CC(C)C[C@@H](CN1CCCC1CN1C(=S)NC[C@@H]1Cc1ccc(O)cc1)N1C[C@H](Cc2ccc(O)cc2)N(CC2CCCCC2)C1=S (some centres not stated)	9.1 µM	19.8 µM
COc1ccc(-c2cc(-c3nc4ccccn4c3NCc3ccccc3)ccc2OC)cc1	4.41 µM	5.51 µM
CCOC(=O)c1ccc(NC(=O)Nc2nncs2)cc1	9.39 µM	64 µM (inactive)
COc1ccccc1NS(=O)(=O)c1cccc(-n2c(O)c(C=Nc3ccccc3C(=O)O)c3ccccc3c2=O)c1	5.54 µM	37.1 µM
Cc1nnc(NC(=O)Nc2ccc(Cl)c(Cl)c2)s1	2.78 µM	15.3 µM
COc1ccccc1NC(=O)c1cc2c(CO)cnc(C)c2oc1=Nc1ccc(OC)c(OC)c1	9.49 µM	12.2 µM
CN(CCC#N)C(=O)COC(=O)c1ccccc1C(=O)c1ccc(Cl)c([N+](=O)[O-])c1	5.31 µM	16.5 µM
Cc1cccc(NC(=O)c2nc(S(=O)(=O)Cc3ccccc3)ncc2Cl)c1	2.51 µM	3.39 µM
C=CC[C@@H](CC/C=C/C=C/CC/C=C\[C@@H]1CSC([C@@H]2C[C@@H]2C)=N1)OC	inactive	63 µM (inactive)
CC(C)[C@H](CO)Nc1nc(NCc2ccc(S(N)(=O)=O)cc2)c2ncn(C(C)C)c2n1	1.67 µM	11.9 µM
Nc1nccc(-c2ccc(-n3cnc4ccccc43)cc2)n1	2.13 µM	49.1 µM

Structure (SMILES)	IC50 [1]	IC50 (Cytotoxicity)
COc1ccc(C2=Nn3c(nnc3-c3ccccc3OC)SC2)cc1OC1CCCC1	0.229 µM	> 79 µM (inactive)
Cc1ccc(C(=O)Nc2cccc(C(F)(F)F)c2)cc1NC(=O)c1cnnc2ccccc12	6.43 µM	22.6 µM
O=C(Nc1cccc2[nH]ncc12)c1ccc(F)cc1	1.06 µM	> 79 µM (inactive)
C=C1C(=O)[C@]23C[C@H]1CC[C@H]2[C@]1(C)[C@@H](O)CC[C@@](C)(C(=O)O)[C@H]1C[C@@H]3O	2.04 µM	12.5 µM
NC(=O)c1sc2nc3c(c(-c4ccccc4)c2c1N)CCC3	1.17 µM	60.1 µM (inactive)
COc1ccc(C2=Nn3c(nnc3-c3ccccc3OC)SC2)cc1OC1CCOC1 (configuration not stated)	4.85 µM	> 79 µM (inactive)
C=C1C(=O)[C@]23C[C@H]1CCC2[C@@]1(C)C(C[C@@H]3O)[C@](C)(C(=O)O)CC[C@@H]1O (some centres not stated)	1.98 µM	13.1 µM
COc1cncc(-c2cnc3sc(NCCc4ccccn4)nn23)c1	1.53 µM	> 79 µM (inactive)
CCOc1cc2c(cc1O)C(=NOC)CC1C2CCC2(C)C(O)CCC12 (configuration not stated)	7.69 µM	> 79 µM (inactive)
COc1ccccc1[C@]1(C)ON(c2ccccc2C(F)(F)F)C1=O	4.14 µM	66.9 µM (inactive)
COc1cccc2sc(N(CCCN(C)C)C(=O)CCS(=O)(=O)c3ccccc3)nc12	2.34 µM	4.84 µM
CCOc1ccccc1NC(=S)Nc1ccc2cn[nH]c2c1	5.7 µM	58.5 µM (inactive)
COc1cccc(-c2ccc3ncnc(NCc4cccnc4)c3c2)c1	1.23 µM	11.3 µM
CCOc1ccc(C(C(=O)NC2CCCC2)N(C(=O)c2snc(C(N)=O)c2N)c2cccc(O)c2)cc1 (configuration not stated)	4.37 µM	7.27 µM
O=C(Nc1ccccc1N1CCOCC1)c1cc(-c2ccco2)nc2ccccc12	3.88 µM	9.59 µM
O=C(COC(=O)c1ccccc1C(=O)c1ccc(Cl)c([N+](=O)[O-])c1)NC1CCCCCC1	1.6 µM	5.03 µM
CCOC(=O)c1c(-c2ccccc2)oc2cc(Br)c(O)c(C=O)c12	3.05 µM	13.3 µM
CCCCNc1c(-c2cccc(-c3ccc(OC)cc3)c2)nc2ccc(C)cn12	4.98 µM	1.72 µM
